Test results published in PubChem BioAssay AID504646 (Southern Research Specialized Biocontainment Screening …, 2011).
Activity calls are given as the source filed them. The rule behind the calls is not given here.

Assays:
[1] = M. tuberculosis growth inhibition in 7H9, dose response, 7H9 media, purified and synthesized samples, set 3 (AID 504646); conditions: Mycobacterium tuberculosis growth in 7H9 media; at 25 µM (top of the series)
[2] = test system: Mycobacterium tuberculosis growth in 7H9 media; assay: as above; conditions: for IC90: 90% growth inhibition concentration

SMILES: O=C(CSc1ccccn1)NC1CCCCC1
- growth inhibition [1]: -4.91% (inactive)

SMILES: O=C(CSc1ncccn1)NC1CCCCC1
- growth inhibition [1]: -5.77% (inactive)

SMILES: CCOc1ccc(NC(=O)CSc2nc(N)c(-c3ccccc3)c(=O)[nH]2)cc1
- growth inhibition [1]: 0.19% (inactive)

SMILES: Oc1ccccc1/C=N/Nc1ccnc(SCc2ccccc2)n1
- growth inhibition [1]: 2.73% (inactive)

SMILES: Cc1cc(=O)[nH]c(=S)[nH]1
- growth inhibition [1]: -1.28% (inactive)

SMILES: CCSc1nc2ccccc2c(=O)[nH]1
- growth inhibition [1]: -4.76% (inactive)

SMILES: COC(=O)C(Nc1nc(SCC(=O)NC2CCCCC2)nc2ccccc12)c1ccccc1 (stereo not given)
- growth inhibition [1]: -0.22% (inactive)

SMILES: CN(C(=O)CSc1nc2ccccc2c(=O)[nH]1)C1CCCCC1
- growth inhibition [1]: -6.94% (inactive)

SMILES: CCc1c(O)nc(SCC(=O)Nc2ccc(OC)cc2)n(C2CCCCC2)c1=O
- growth inhibition [1]: -2.19% (inactive)

SMILES: Nc1cc(=O)[nH]c(SCC(=O)Nc2ccc(Oc3ccccc3)cc2)n1
- growth inhibition [1]: -0.36% (inactive)

SMILES: CCC(Sc1nc(=O)cc(N)n1-c1ccccc1)C(=O)Nc1cc(C)on1 (stereo not given)
- growth inhibition [1]: -3.83% (inactive)

SMILES: Cc1[nH]c2ccccc2c1C(=O)COC(=O)c1ccc([N+](=O)[O-])s1
- growth inhibition [1]: -5.99% (inactive)

SMILES: COc1ccc(-c2noc(CSc3nc(N)c(-c4ccccc4)c(=O)[nH]3)n2)cc1OC
- growth inhibition [1]: -5.09% (inactive)

SMILES: Cc1c[nH]c(=S)[nH]c1=O
- growth inhibition [1]: -6.2% (inactive)

SMILES: CCCc1cc(=O)[nH]c(SCC(=O)Nc2cc3c(cc2C(C)=O)OCO3)n1
- growth inhibition [1]: 3.07% (inactive)

SMILES: Cc1cc(C)cc(NC(=O)CSc2nc3c(c(=O)[nH]2)CN(Cc2ccc(F)cc2)CC3)c1
- growth inhibition [1]: -0.33% (inactive)

SMILES: Cc1ccc(NC(=O)CSc2nc(N)c(-c3ccccc3)c(=O)[nH]2)cc1Cl
- growth inhibition [1]: -2.34% (inactive)

SMILES: COC(=O)c1ccc(CNc2c(N3CCCC3)c(=O)c2=O)cc1
- growth inhibition [1]: -13.4% (inactive)

SMILES: CCOc1ccc2nc(NC(=O)C(CC)Sc3nc(C)cc(=O)[nH]3)sc2c1 (stereo not given)
- growth inhibition [1]: 2.52% (inactive)

SMILES: Cc1nc(SCc2ccccc2Cl)[nH]c(=O)c1C
- growth inhibition [1]: -6.95% (inactive)

SMILES: Cc1nc(SCC(N)=O)[nH]c(=O)c1C
- growth inhibition [1]: -2.97% (inactive)

SMILES: CCOc1ccc(NC(=O)c2ccc(CNc3c(N4CCCC4)c(=O)c3=O)cc2)cc1
- growth inhibition [1]: 0.32% (inactive)

SMILES: CCOC(=O)N1CCC(Nc2c(Nc3cccc(CC)c3)c(=O)c2=O)CC1
- growth inhibition [1]: 17.3% (inactive)

SMILES: Cc1ccc(NC(=O)CSc2nc(N)cc(=O)[nH]2)cc1Cl
- growth inhibition [1]: 2.55% (inactive)

SMILES: CC(NC(=O)CSc1nc2ccccc2c(=O)[nH]1)c1ccccc1 (stereo not given)
- growth inhibition [1]: -9.84% (inactive)

SMILES: O=c1[nH]c(=S)[nH]c2ccccc12
- growth inhibition [1]: -8.06% (inactive)

SMILES: Cc1cccc(N2CCN(C(=O)c3ccc(CNc4c(N5CCC(C)CC5)c(=O)c4=O)cc3)CC2C)c1 (stereo not given)
- growth inhibition [1]: -1.5% (inactive)

SMILES: CCOC(=O)CSc1nc(C)c(C)c(=O)[nH]1
- growth inhibition [1]: -7.78% (inactive)

SMILES: Nc1cc(=O)[nH]c(SCC(=O)Nc2ccccc2-c2ccccc2)n1
- growth inhibition [1]: -1.58% (inactive)

SMILES: COc1ccc(NC(=O)CSc2nc(NS(=O)(=O)c3ccc(C)cc3)cc(=O)[nH]2)cc1
- growth inhibition [1]: 1.44% (inactive)

SMILES: CCOC(=O)N1CCC(Nc2c(N3CCN(c4cccc(C(F)(F)F)c4)CC3)c(=O)c2=O)CC1
- growth inhibition [1]: -1.75% (inactive)

SMILES: CC(=NCc1ccc2c(c1)OCO2)C1=C(O)c2ccccc2C1=O
- IC50 [2]: 950 nM
- IC90 [2]: > 25000 nM

SMILES: CC1CC(C)CN(C(=O)c2ccc(CNc3c(N4CCCC4)c(=O)c3=O)cc2)C1 (stereo not given)
- IC50 [2]: 5140 nM
- IC90 [2]: > 25000 nM

SMILES: CC1CCN(C(=O)C2CCN(c3nnc(-n4cccc4)s3)CC2)CC1
- IC50 [2]: 1550 nM
- IC90 [2]: 2910 nM

SMILES: CCOC(=O)COc1ccc(/C=C2\NC(=S)N(CC)C2=O)cc1
- IC50 [2]: 1940 nM
- IC90 [2]: 3700 nM

SMILES: S=c1nc[nH]c2nc[nH]c12
- IC50 [2]: 1380 nM
- IC90 [2]: 1960 nM

SMILES: CCc1c(C)nc(SCC(=O)NC2CCCC2)[nH]c1=O
- IC50 [2]: 1500 nM
- IC90 [2]: 2850 nM

SMILES: CCOc1ccc(-c2cc(C)[n+](CCc3ccc(OC)c(OC)c3)c(-c3ccc(OCC)cc3)c2)cc1
- IC50 [2]: 600 nM
- IC90 [2]: 900 nM
